Measurements: patent US20090068161A1, “USE OF A COMBINATION OF HESPERIDIN AND OF A MICROORGANISM FOR INFLUENCING THE BARRIER FUNCTION OF THE SKIN” (L'OREAL, priority 2007, published 2009)

Test system: Episkin® model (reconstituted skin)
Experiment: Barrier function of reconstituted skin (Episkin® model): penetration of a nonpenetrating reference compound (cationic anthraquinone)
Type: cell-based
Settings: condition E: Episkin® treated from D6 to D13 with 10 μM Hes7Glu; dye 1 mM applied for 4 hours
Source text: The conversion of a nutritional agent (hereinafter known as probiotic conditioned medium) after ingestion is first of all stimulated, for the purpose of resulting use directly on a skin model (stage A).
The medium of the cocultures stimulated with Lactobacillus paracasei, resulting from the basolateral compartment, is subsequently withdrawn and its effects, in combination with the most important metabolite of hesperidin, hesperitin-7 glucuronide (Hes7Glu), on the barrier function in the Episkin® model are subsequently tested in vitro (stage B).
A—Preparation of the Probiotic Conditioned Medium
An intestinal barrier model (comprising human enterocyte lines (Caco-2) co-cultured with human leukocytes in a “transwell” cell co-culture system [Haller D, 2000]) has been developed. […]
The receiving liquid (RL) is collected and then assayed directly at the end of application by HPLC. Each point is analysed in duplicate. […]
The concentration is determined using a calibration range produced on the same day. The degrees of penetration are calculated from the ratio of the amount in the RL to the amount applied, the following results having in addition formed the subject of a statistical study using the Wilcoxon tests.

## COc1ccc([C@@H]2CC(=O)c3c(O)cc(O[C@@H]4O[C@H](C(=O)O)[C@@H](O)[C@H](O)[C@H]4O)cc3O2)cc1O [Hes7Glu, hesperitin-7 glucuronide]
  effect on the barrier function (degree of penetration of the cationic anthraquinone): no significant effect
